Data: patent US8410164B2, “Reagent for measurement of active oxygen” (The University of Tokyo, priority 2008, dated 2013)

Experiments:
[1] = tested on: HeLa cells; experiment: Imaging of reactive oxygen species in living HeLa cells after sodium hypochlorite stimulation; format: cell-based; conditions: 1.0 μM loaded for 15 minutes, 500 μM sodium hypochlorite
Method: Imaging of reactive oxygen species in living cells was performed by using the compound 5 (APC). The compound 6 (APC-AM, 1.0 μM, 0.1% dimethylformamide (cosolvent)), which corresponds to APC esterified to increase cell membrane permeability, was loaded on the HeLa cells for 15 minutes by addition to the medium of the cells, and then the cells were stimulated with 500 μM sodium hypochlorite.

[2] = tested on: HL-60 cells; experiment: Intracellular retentivity of reaction products of APF and APC-AM in HL-60 cells by FACS; format: cell-based; conditions: 10 μM loaded 60 minutes, 100 μM hydrogen peroxide 15 minutes
Method: Intracellular retentivities of the reaction products produced from APF and APC with the reactive oxygen species were compared in a similar manner. APF and APC-AM (10 μM, 1.0% dimethylformamide (cosolvent) for the both) were loaded on the HL-60 cells for 60 minutes by adding them to the medium of the cells, and then the cells were stimulated with 100 μM hydrogen peroxide for 15 minutes. Then, fluorescence intensity was periodically measured (0 minute, 30 minutes, 60 minutes) by FACS. In FIG. 6, the graphs (A) to (C) show the results obtained with APF, and the graphs (D) to (F) show the results obtained with APC-AM. The graphs (A) and (D) show the results obtained immediately after the hydrogen peroxide stimulation, (B) and (E) show the results obtained 30 minutes after the stimulation, and (C) and (F) show the results obtained 60 minutes after the stimulation.

[3] = Fluorescence quantum yield (Φf); format: physicochemical
Method: (§1) The compound 5 (APC) is a substantially non-fluorescent (Φf=0.007) substance having a moiety that specifically reacts with reactive oxygen species in the molecule. This substance specifically reacts with reactive oxygen species, and thereby becomes calcein to emit fluorescence. The tetracetoxymethyl ester of this calcein and diacetyl ester of fluorescein were taken up by HL-60 cells, and intracellular retentivity of calcein and fluorescein was evaluated.

[4] = tested on: HL-60 cells; experiment: Intracellular retentivity of calcein and fluorescein taken up by HL-60 cells as esters; format: cell-based
Method: as §1

[5] = pKa comparison of calcein and fluorescein; format: physicochemical

## CC(=O)OCOC(=O)CN(CC(=O)OCOC(C)=O)Cc1c(O)ccc2c1Oc1c(ccc(Oc3ccc([N+](=O)[O-])cc3)c1CN(CC(=O)OCOC(C)=O)CC(=O)OCOC(C)=O)C21OC(=O)c2ccccc21 (centres unmarked) [APC-AM, 3-Hydroxy-4,5-bis[N,N′-di(carboxymethyl)aminomethyl]-6-(4′-nitro)phenoxyfluorescein tetracetoxymethyl ester]
[1]
  Fluorescence in HeLa cells after sodium hypochlorite stimulation: Extremely intense fluorescence

## Nc1ccc(Oc2ccc3c(-c4ccccc4C(=O)O)c4ccc(=O)cc-4oc3c2)cc1 [APF, aminophenylfluorescein]
[2]; 0 minute
  Fluorescence intensity by FACS immediately after hydrogen peroxide stimulation: increase of fluorescence intensity was observed
[2]; 30 and 60 minutes
  Fluorescence intensity by FACS 30 and 60 minutes after stimulation (intracellular retentivity of reaction product): detection thereof became difficult after 30 minutes

## O=C(O)CN(CC(=O)O)Cc1cc2c(cc1O)Oc1cc(O)c(CN(CC(=O)O)CC(=O)O)cc1C21OC(=O)c2ccccc21 [calcein]
[3]
  Fluorescence quantum yield Φf: 0.793
[4]; after 60 minutes, loaded as tetracetoxymethyl ester
  Fluorescence intensity in the HL-60 cells over time (intracellular retentivity): hardly decreased
[5]
  pKa: ~5.4

## O=C1OC2(c3ccc(O)cc3Oc3cc(O)ccc32)c2ccccc21 [fluorescein]
[4]; after 15 minutes, loaded as diacetyl ester, fraction of the starting intensity
  Fluorescence intensity in the HL-60 cells over time (intracellular retentivity), level remaining: 1/10
[5]
  pKa: 6.4
